{
  "source": "ChEMBL document CHEMBL4311992",
  "about": "“Discovery of 3-(((9H-purin-6-yl)amino)methyl)-4,6-dimethylpyridin-2(1H)-one derivatives as novel tubulin polymerization inhibitors for treatment of cancer” (Eur J Med Chem, 2019)",
  "key": {"SW-620 [1]": {"tested_on": "SW-620", "test": "Inhibition of colony formation in human SW620 cells at 50 nM after 14 days by crystal violet staining-based microscopic analysis", "assay_type": "functional", "settings": "SW-620, 336 h"}, "[2]": {"target": "BDNF/NT-3 growth factors receptor (Homo sapiens) (UniProt Q16620)", "test": "Inhibition of human TrkB (455 to end residues) using poly(Glu, Tyr) 4:1 as substrate measured after 40 mins in presence of [gamma33P]ATP by scintillation counting method", "set-up": "scale not given: the % may be the effect or the level left"}, "[3]": {"target": "Serine/threonine-protein kinase D2 (Homo sapiens) (UniProt Q9BZL6)", "sequence (Q9BZL6 whole entry)": "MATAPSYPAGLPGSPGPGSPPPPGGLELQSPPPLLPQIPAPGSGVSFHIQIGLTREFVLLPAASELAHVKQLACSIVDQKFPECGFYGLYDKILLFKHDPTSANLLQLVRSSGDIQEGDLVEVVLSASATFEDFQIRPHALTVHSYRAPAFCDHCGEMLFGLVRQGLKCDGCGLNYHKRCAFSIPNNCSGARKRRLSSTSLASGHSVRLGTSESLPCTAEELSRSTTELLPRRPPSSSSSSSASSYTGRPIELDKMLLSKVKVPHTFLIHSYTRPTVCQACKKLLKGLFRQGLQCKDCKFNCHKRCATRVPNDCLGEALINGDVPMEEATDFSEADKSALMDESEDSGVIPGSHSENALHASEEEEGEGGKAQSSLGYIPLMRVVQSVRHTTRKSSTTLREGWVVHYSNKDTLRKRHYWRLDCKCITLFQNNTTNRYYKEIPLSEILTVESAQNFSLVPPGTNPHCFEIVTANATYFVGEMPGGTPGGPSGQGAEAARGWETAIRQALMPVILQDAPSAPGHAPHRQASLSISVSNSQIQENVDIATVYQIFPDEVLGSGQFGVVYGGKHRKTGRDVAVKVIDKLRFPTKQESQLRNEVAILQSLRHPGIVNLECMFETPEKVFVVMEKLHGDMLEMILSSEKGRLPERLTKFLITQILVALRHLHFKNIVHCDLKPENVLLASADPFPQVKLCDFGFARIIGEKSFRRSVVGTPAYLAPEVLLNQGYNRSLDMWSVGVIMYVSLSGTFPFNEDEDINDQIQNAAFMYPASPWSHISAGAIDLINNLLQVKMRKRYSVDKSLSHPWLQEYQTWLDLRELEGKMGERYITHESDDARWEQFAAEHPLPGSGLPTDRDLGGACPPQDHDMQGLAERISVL", "test": "Inhibition of recombinant full-length human PKD2 assessed as residual activity at 10 uM using KKLNRTLSVA as substrate measured after 40 mins in presence of [gamma33P]ATP by scintillation counting method"}, "[4]": {"tested_on": "Ribosomal protein S6 kinase beta-1 (Homo sapiens), P23443 [T412E]", "sequence (P23443 whole entry T412E, looked up, the tested form may be a part)": "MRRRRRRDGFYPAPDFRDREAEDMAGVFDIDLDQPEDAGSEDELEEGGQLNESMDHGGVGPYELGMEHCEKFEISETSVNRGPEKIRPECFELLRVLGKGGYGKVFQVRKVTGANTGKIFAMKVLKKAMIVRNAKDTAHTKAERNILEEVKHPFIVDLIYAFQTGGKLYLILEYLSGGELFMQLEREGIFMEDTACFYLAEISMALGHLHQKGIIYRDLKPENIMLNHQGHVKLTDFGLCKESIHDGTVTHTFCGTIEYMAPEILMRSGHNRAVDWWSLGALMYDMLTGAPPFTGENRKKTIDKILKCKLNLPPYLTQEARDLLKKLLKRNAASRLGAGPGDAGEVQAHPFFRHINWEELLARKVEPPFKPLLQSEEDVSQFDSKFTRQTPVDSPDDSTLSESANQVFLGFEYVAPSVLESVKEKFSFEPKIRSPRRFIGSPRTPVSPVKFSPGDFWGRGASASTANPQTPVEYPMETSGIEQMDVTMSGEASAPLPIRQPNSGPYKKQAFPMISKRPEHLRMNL", "test": "Inhibition of recombinant human p70S6K T412E mutant (1 to 421 residues) assessed as residual activity at 10 uM using KKRNRTLTV as substrate measured after 40 mins in presence of [gamma33P]ATP by scintillation counting method"}, "[5]": {"target": "Serine/threonine-protein kinase Nek3 (Homo sapiens) (UniProt P51956)", "test": "Inhibition of recombinant full-length human NEK3 assessed as residual activity at 10 uM using myelin basic protein as substrate measured after 40 mins in presence of [gamma33P]ATP by scintillation counting method"}, "[6]": {"target": "Serine/threonine-protein kinase Nek2 (Homo sapiens) (UniProt P51955)", "test": "Inhibition of recombinant full-length human NEK2 assessed as residual activity at 10 uM using myelin basic protein as substrate measured after 40 mins in presence of [gamma33P]ATP by scintillation counting method"}, "[7]": {"tested_on": "Dual specificity protein kinase TTK (Homo sapiens), P33981 [S389A]", "test": "Inhibition of recombinant full-length human TTK S389A mutant assessed as residual activity at 10 uM using MBP as substrate measured after 40 mins in presence of [gamma33P]ATP by scintillation counting method"}, "Mus musculus [8]": {"organism": "Mus musculus", "test": "Inhibition of recombinant full-length mouse PI3K p110beta/p85alpha R123L mutant assessed as residual activity at 10 uM using phosphatidylinositol-4, 5-bisphosphate as substrate measured after 40 mins by HTRF assay"}, "Mus musculus [9]": {"organism": "Mus musculus", "test": "Inhibition of recombinant full-length mouse PI3K p110alpha/p85alpha E542K mutant assessed as residual activity at 10 uM using phosphatidylinositol-4, 5-bisphosphate as substrate measured after 40 mins by HTRF assay"}, "[10]": {"target": "5'-AMP-activated protein kinase catalytic subunit alpha-2 (Homo sapiens) (UniProt P54646)", "sequence (P54646 whole entry, looked up)": "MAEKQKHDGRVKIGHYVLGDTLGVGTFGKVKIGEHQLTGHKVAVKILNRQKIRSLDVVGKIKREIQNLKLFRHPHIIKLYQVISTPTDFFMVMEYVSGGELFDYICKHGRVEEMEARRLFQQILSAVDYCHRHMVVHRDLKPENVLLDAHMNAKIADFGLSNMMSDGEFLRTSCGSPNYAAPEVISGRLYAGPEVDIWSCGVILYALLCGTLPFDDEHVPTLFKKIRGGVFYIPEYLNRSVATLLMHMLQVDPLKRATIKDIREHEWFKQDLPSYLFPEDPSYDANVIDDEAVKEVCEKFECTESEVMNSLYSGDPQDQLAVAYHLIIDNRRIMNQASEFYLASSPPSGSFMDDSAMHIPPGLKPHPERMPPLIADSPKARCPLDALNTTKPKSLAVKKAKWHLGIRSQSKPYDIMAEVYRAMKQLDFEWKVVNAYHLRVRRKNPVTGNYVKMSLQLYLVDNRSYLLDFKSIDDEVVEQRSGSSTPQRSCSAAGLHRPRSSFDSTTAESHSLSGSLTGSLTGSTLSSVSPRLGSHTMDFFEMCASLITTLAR", "test": "Inhibition of recombinant full-length human AMPKalpha2 assessed as residual activity at 10 uM using AMARAASAAALARRR as substrate measured after 40 mins in presence of [gamma33P]ATP by scintillation counting method"}, "[11]": {"target": "Tyrosine-protein kinase ABL2 (Homo sapiens) (UniProt P42684)", "sequence (P42684 whole entry)": "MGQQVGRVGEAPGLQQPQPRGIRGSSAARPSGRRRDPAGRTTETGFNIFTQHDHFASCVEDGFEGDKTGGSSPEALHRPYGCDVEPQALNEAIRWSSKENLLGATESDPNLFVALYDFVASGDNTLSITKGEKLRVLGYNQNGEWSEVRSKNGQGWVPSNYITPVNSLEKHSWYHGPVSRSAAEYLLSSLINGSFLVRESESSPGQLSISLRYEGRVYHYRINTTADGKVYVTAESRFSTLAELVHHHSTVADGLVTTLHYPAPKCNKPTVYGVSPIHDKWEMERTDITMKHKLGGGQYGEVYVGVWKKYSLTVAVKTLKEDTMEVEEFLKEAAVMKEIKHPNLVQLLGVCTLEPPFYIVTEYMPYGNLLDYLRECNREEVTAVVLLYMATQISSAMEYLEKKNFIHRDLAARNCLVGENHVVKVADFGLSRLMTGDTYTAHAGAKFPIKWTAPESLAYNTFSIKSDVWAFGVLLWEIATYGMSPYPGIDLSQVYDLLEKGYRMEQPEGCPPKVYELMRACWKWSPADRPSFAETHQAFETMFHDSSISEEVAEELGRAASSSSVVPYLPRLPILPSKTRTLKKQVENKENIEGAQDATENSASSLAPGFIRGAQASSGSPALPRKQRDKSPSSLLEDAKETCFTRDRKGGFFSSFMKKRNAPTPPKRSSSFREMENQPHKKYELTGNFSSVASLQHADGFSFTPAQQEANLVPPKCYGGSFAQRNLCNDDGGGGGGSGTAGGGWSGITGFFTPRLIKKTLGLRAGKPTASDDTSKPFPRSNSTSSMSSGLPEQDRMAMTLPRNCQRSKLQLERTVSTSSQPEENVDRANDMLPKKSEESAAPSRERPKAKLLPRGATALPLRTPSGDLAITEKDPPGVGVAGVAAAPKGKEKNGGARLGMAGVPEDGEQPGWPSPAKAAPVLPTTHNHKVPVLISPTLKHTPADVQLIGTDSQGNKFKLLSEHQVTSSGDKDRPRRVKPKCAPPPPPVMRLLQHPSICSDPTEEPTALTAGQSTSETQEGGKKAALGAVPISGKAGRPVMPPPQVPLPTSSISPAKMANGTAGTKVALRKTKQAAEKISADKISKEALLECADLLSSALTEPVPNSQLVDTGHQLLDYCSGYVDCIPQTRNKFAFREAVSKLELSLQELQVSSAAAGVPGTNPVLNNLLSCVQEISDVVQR", "test": "Inhibition of recombinant human ARG (38 to end residues) assessed as residual activity at 10 uM using EAIYAAPFAKKK as substrate measured after 40 mins in presence of [gamma33P]ATP by scintillation counting method"}, "[12]": {"target": "Activin receptor type-1 (Homo sapiens) (UniProt Q04771)", "test": "Inhibition of recombinant human ALK2 (142 to end residues) assessed as residual activity at 10 uM using casein as substrate measured after 40 mins in presence of [gamma33P]ATP by scintillation counting method"}, "[13]": {"tested_on": "Tyrosine-protein kinase ABL1 (Homo sapiens), P00519 [Q252H]", "test": "Inhibition of recombinant human ABL Q252H mutant (27 to end residues) assessed as residual activity at 10 uM using EAIYAAPFAKKK as substrate measured after 40 mins in presence of [gamma33P]ATP by scintillation counting method"}, "[14]": {"target": "Cyclin-dependent kinase 5/CDK5 activator 1 (Homo sapiens) (UniProt Q00535+Q15078)", "test": "Inhibition of recombinant full-length human CDK5/p25 assessed as residual activity at 10 uM using histone H1 as substrate measured after 40 mins in presence of [gamma33P]ATP by scintillation counting method", "assay_type": "protein-complex assay"}, "[15]": {"target": "Dual specificity protein kinase CLK1 (Homo sapiens) (UniProt P49759)", "sequence (P49759 whole entry, looked up)": "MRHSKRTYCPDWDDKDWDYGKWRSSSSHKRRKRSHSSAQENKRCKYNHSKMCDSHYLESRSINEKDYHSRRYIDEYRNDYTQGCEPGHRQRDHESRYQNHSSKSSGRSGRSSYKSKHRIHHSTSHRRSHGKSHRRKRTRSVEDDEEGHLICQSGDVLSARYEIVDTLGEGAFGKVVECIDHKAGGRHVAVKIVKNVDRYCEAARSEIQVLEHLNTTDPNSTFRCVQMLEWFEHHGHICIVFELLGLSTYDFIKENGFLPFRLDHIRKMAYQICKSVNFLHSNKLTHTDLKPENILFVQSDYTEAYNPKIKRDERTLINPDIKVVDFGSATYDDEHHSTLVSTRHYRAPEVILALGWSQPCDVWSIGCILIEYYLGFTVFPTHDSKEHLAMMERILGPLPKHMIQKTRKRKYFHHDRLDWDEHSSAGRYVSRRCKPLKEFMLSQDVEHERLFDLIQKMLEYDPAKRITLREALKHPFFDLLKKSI", "test": "Inhibition of recombinant human CLK1 (130 to end residues) assessed as residual activity at 10 uM using ERMRPRKRQGSVRRRV as substrate measured after 40 mins in presence of [gamma33P]ATP by scintillation counting method"}, "[16]": {"target": "Serine/threonine-protein kinase DCLK3 (Homo sapiens) (UniProt Q9C098)", "test": "Inhibition of recombinant human DCAMKL3 (345 to end residues) assessed as residual activity at 10 uM using KKLNRTLSFAEPG as substrate measured after 40 mins in presence of [gamma33P]ATP by scintillation counting method"}, "[17]": {"target": "Serine/threonine-protein kinase PAK 5 (Homo sapiens) (UniProt Q9P286)", "sequence (Q9P286 whole entry, looked up)": "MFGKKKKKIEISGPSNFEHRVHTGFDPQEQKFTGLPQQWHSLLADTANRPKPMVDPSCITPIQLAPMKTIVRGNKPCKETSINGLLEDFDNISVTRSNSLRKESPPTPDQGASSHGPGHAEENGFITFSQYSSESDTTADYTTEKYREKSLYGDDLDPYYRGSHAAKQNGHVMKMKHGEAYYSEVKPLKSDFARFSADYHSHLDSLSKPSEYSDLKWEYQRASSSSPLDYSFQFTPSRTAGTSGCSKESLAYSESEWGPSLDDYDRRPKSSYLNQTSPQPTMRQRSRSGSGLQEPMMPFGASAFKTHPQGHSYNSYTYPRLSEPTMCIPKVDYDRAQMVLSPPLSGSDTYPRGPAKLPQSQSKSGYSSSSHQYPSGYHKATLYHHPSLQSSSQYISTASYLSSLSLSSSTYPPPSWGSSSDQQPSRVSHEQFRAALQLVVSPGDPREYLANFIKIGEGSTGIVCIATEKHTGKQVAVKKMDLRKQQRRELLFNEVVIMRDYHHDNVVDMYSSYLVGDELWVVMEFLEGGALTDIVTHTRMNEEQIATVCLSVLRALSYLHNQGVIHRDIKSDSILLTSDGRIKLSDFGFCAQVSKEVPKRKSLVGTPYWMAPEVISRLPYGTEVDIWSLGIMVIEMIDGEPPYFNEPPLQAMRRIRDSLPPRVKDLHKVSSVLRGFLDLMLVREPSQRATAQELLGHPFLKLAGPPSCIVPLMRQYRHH", "test": "Inhibition of recombinant human PAK5 (425 to end residues) assessed as residual activity at 10 uM using RRRLSFAEPG as substrate measured after 40 mins in presence of [gamma33P]ATP by scintillation counting method"}, "[18]": {"target": "[Pyruvate dehydrogenase (acetyl-transferring)] kinase isozyme 2, mitochondrial (Homo sapiens) (UniProt Q15119)", "test": "Inhibition of human PDHK2 assessed as residual activity at 10 uM by radiometric method"}, "Homo sapiens": {"organism": "Homo sapiens", "test": "Inhibition of recombinant human PRAK R291E mutant assessed as residual activity at 10 uM using KKLRRTLSVA as substrate measured after 40 mins in presence of [gamma33P]ATP by scintillation counting method"}, "[19]": {"target": "Proto-oncogene tyrosine-protein kinase receptor Ret (Homo sapiens) (UniProt P07949)", "test": "Inhibition of human Ret (658 to end residues) using KKKSPGEYVNIEFG as substrate measured after 40 mins in presence of [gamma33P]ATP by scintillation counting method", "set-up": "scale not given: the % may be the effect or the level left"}, "[20]": {"target": "Serine/threonine-protein kinase 33 (Homo sapiens) (UniProt Q9BYT3)", "test": "Inhibition of recombinant full-length human STK33 assessed as residual activity at 10 uM using myelin basic protein as substrate measured after 40 mins in presence of [gamma33P]ATP by scintillation counting method"}, "[21]": {"target": "Serine/threonine-protein kinase TBK1 (Homo sapiens) (UniProt Q9UHD2)", "sequence (Q9UHD2 whole entry)": "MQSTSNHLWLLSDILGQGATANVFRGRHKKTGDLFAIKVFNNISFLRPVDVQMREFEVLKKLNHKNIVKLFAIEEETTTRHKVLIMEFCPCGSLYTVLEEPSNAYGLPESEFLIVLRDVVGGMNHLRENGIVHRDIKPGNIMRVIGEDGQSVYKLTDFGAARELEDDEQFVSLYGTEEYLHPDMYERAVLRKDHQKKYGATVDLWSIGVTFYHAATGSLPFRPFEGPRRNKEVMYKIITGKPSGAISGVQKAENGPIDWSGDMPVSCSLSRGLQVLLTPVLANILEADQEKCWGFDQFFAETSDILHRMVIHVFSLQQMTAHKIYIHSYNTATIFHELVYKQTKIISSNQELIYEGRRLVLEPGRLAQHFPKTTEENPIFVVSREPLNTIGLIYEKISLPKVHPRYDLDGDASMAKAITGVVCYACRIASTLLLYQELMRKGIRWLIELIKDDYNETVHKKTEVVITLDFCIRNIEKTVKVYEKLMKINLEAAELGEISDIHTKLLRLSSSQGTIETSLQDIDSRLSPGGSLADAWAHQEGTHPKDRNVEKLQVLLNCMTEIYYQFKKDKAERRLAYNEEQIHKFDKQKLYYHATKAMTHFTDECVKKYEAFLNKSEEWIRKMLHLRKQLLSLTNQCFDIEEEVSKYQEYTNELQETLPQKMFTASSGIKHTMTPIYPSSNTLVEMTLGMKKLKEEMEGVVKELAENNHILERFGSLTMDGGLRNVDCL", "test": "Inhibition of recombinant full-length human TBK1 assessed as residual activity at 10 uM using KRRRALS(p)VASLPGL as substrate measured after 40 mins in presence of [gamma33P]ATP by scintillation counting method"}, "[22]": {"test": "Toxicity in nude BALB/c mouse assessed as change in cholesterol level at 40 to 80 mg/kg, po once daily for 4 weeks measured post-last dose", "assay_type": "organism-based", "settings": "in vivo, 672 h"}, "SW-620 [23]": {"tested_on": "SW-620", "test": "Induction of apoptosis in human SW620 cells assessed as late apoptotic cells at 25 nM measured after 48 hrs by Annexin V-FITC/propidium iodide staining-based flow cytometry (reference value: 1.8%)", "assay_type": "functional"}, "HCT-116": {"tested_on": "HCT-116", "test": "Induction of apoptosis in human HCT116 cells assessed as early apoptotic cells at 100 nM measured after 48 hrs by Annexin V-FITC/propidium iodide staining-based flow cytometry (reference value: 0.418%)", "assay_type": "functional"}},
  "data": [
    {"smiles": "Cc1cc(C)c(CNc2nc(Cl)nc3c2ncn3C2CCCC2)c(=O)[nH]1", "values": [
      {"measurement": "inhibition at 0.05 µM", "setting": "SW-620 [1]", "result": 100, "unit": "%"},
      {"measurement": "Activity", "setting": "[2]", "result": 126, "unit": "%"},
      {"measurement": "Activity", "setting": "[3]", "result": 120, "unit": "%"},
      {"measurement": "Activity", "setting": "[4]", "result": 105, "unit": "%"},
      {"measurement": "Activity", "setting": "[5]", "result": 102, "unit": "%"},
      {"measurement": "Activity", "setting": "[6]", "result": 101, "unit": "%"},
      {"measurement": "Activity", "setting": "[7]", "result": 99.5, "unit": "%"},
      {"measurement": "Activity", "setting": "Mus musculus [8]", "result": 104, "unit": "%"},
      {"measurement": "Activity", "setting": "Mus musculus [9]", "result": 95, "unit": "%"},
      {"measurement": "Activity", "setting": "[10]", "result": 117, "unit": "%"},
      {"measurement": "Activity", "setting": "[11]", "result": 115, "unit": "%"},
      {"measurement": "Activity", "setting": "[12]", "result": 106, "unit": "%"},
      {"measurement": "Activity", "setting": "[13]", "result": 106, "unit": "%"},
      {"measurement": "Activity", "setting": "[14]", "result": 94, "unit": "%"},
      {"measurement": "Activity", "setting": "[15]", "result": 108, "unit": "%"},
      {"measurement": "Activity", "setting": "[16]", "result": 110, "unit": "%"},
      {"measurement": "Activity", "setting": "[17]", "result": 110, "unit": "%"},
      {"measurement": "Activity", "setting": "[18]", "result": 128, "unit": "%"},
      {"measurement": "Activity", "setting": "Homo sapiens", "result": 125, "unit": "%"},
      {"measurement": "Activity", "setting": "[19]", "result": 100, "unit": "%"},
      {"measurement": "Activity", "setting": "[20]", "result": 86.5, "unit": "%"},
      {"measurement": "Activity", "setting": "[21]", "result": 99.5, "unit": "%"},
      {"measurement": "Activity", "setting": "[22]", "result": "Non-Toxic"},
      {"measurement": "Activity", "setting": "SW-620 [23]", "result": 4.23, "unit": "%"},
      {"measurement": "Activity", "setting": "HCT-116", "result": 5.35, "unit": "%"}
    ]}
  ]
}
